Experimental data published in ChEMBL document CHEMBL4373636, “Synthesis of endolides A and B: naturally occurring N-methylated cyclic tetrapeptides” (Medchemcomm, 2019).

Legend:
[1] = target: 5-hydroxytryptamine receptor 2B (Homo sapiens, UniProt P41595); experiment: Binding affinity to 5HT2b (unknown origin)
Vasopressin V1a receptor = Vasopressin V1a receptor (Homo sapiens, UniProt P37288); experiment: Binding affinity to vasopressin 1A receptor (unknown origin)
Sequence of Vasopressin V1a receptor (P37288 whole entry): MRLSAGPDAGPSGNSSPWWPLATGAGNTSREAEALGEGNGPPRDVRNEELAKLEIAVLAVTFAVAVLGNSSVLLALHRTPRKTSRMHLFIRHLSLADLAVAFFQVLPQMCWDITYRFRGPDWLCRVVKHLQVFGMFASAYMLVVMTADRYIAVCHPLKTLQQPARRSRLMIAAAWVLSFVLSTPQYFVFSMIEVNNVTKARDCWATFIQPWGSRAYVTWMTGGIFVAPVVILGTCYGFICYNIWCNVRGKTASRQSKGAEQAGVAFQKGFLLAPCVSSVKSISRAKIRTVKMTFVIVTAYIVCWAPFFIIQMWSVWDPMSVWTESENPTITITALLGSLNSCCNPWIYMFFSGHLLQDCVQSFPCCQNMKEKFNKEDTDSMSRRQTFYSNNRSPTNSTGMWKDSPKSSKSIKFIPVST

Sequence of 5-hydroxytryptamine receptor 2B (P41595 whole entry): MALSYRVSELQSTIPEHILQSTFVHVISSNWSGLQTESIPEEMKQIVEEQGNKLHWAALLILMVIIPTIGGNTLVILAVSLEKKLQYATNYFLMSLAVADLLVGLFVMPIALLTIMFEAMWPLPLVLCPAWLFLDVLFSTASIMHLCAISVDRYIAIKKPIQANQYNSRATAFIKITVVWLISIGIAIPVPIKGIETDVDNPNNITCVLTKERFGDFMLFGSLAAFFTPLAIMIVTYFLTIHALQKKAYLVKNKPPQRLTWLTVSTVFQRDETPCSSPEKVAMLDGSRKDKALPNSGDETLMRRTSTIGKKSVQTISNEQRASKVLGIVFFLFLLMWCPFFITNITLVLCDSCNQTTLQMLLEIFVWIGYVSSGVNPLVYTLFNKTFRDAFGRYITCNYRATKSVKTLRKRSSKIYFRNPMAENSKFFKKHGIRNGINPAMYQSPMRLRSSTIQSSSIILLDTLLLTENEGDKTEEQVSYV

Row | Ki [1] [µM] | Ki (Vasopressin V1a receptor) [µM] | Compound
1 | 0.77 | – | CC(C)[C@@H]1NC(=O)[C@H](Cc2ccoc2)N(C)C(=O)[C@H](Cc2ccoc2)NC(=O)[C@H](Cc2ccoc2)N(C)C1=O
2 | – | 7.04 | CC(C)C[C@@H]1NC(=O)[C@H](Cc2ccoc2)N(C)C(=O)[C@H](C(C)C)NC(=O)[C@H](Cc2ccoc2)N(C)C1=O
